Results on two compounds are retold here after ChEMBL document CHEMBL4017537, “Discovery of a Potent and Specific M. tuberculosis Leucyl-tRNA Synthetase Inhibitor: (S)-3-(Aminomethyl)-4-chloro-7-(2-hydroxyethoxy)benzo[c][1,2]oxaborol-1(3H)-ol (GSK656)” (J Med Chem, 2017).

Common to all, as to format: ADME, organism-based
A short description of data set [1]: AUC (0 to infinity) in C57BL/6 mouse at 5.5 mg/kg, iv administered as single dose measured up to 24 hrs by LC-MS/MS analysis. Set-up: dose 5.5 mg/kg, time infinity, route intravenous. Conditions: in vivo.
Another data set concerns Mus musculus. In words: Dose normalized AUC (0 to 24 hrs) in C57BL/6 mouse at 30 mg/kg administered as single dose via oral gavage by LC-MS/MS analysis. Particulars: in vivo.
Data set [2] in a line: Oral bioavailability in C57BL/6 mouse at 30 mg/kg administered as single dose via gavage measured up to 24 hrs by LC-MS/MS analysis. Particulars: in vivo.
Data set [3] can be described thus: Volume of distribution at steady state in CD-1 mouse at 30 mg/kg, iv after 24 hrs by LC-MS/MS analysis. Conditions: in vivo, read-out: Vdss.
A short description of data set [4]: Tmax in CD-1 mouse at 30 mg/kg administered via oral gavage after 24 hrs by LC-MS/MS analysis. Particulars: in vivo.
The nature of data set [5]: Oral bioavailability in CD-1 mouse at 30 mg/kg administered via gavage after 24 hrs by LC-MS/MS analysis. Conditions: in vivo.

By AUC(0-inf) is commonly meant total exposure, with the tail of the curve extrapolated. A lower AUC(0-inf) goes with less exposure. By bioavailability is commonly meant dose-corrected exposure relative to a reference, in per cent. For orientation: Tmax means the time at which the peak concentration occurs.

In data set [1], `Cl.NC[C@H]1OB(O)c2c(OCCO)ccc(Cl)c21` returned an AUC(0-inf) of 11100 ng·h/mL. Besides, the AUC/dose with Mus musculus worked out at 2.94 µg·h/mL. Moreover, the bioavailability in data set [2] came out at 100%.

Consider `CCOc1ccc(Br)c2c1B(O)O[C@@H]2CN`, for which the Vd in data set [3] is 3.2 L/kg. In addition, the Tmax in data set [4] is 30 min. This compound had a bioavailability in data set [5] of 100%.
